Experiments:
CDK12/CycK = molecular target: T1, CDK12/CycK (Homo sapiens, UniProt Q9NYV4); assay: CDK12/CycK high ATP kinase assay (TR-FRET, 2 mM ATP); format: biochemical; settings: read-out: CDK12/CyclinK, 2 mM ATP (high ATP), IC50-[mol/l] (median)
T1 construct: His-CDK12 (aa Q696-S1082); made in house; host or cells: Hi-5 insect cells (baculovirus co-infection with CAK1)
Excerpt: In the context of the present invention, the term “IC50 CDK12 hATP” refers to the IC50 values obtained according to the assay described in this section (2.2) herein below, i.e. the IC50 values for the inhibition of CDK12 at high ATP.
CDK12/CycK-inhibitory activity of compounds of the present invention at 2 millimol/L adenosine-tri-phosphate (ATP) was quantified employing the TR-FRET (TR-FRET=Time Resolved Fluorescence Energy Transfer) based CDK12/CycK activity inhibition assay as described in the following paragraphs.
A complex of human recombinant CDK12 and human recombinant CycK (both N-terminally His-tagged, expression and purification as described above) was used as enzyme. As substrate for the kinase reaction biotinylated peptide biotin-Ahx-KFELLPTPPLSPSRRSGL (C-terminus in amid form) was used which can be purchased e.g. form the company Biosyntan (Berlin-Buch, Germany).
For the assay 50 nanoL of a 100 fold concentrated solution of the test compound in DMSO was pipetted into either a black low volume 384 well microtiter plate or a black 1536 well microtiter plate (both Greiner Bio-One, Frickenhausen, Germany), 2 microL of a solution of CDK12/CycK in aqueous assay buffer [25 millimol/L HEPES pH 7.5, 20 millimol/L MgCl2, 5 millimol/L ß-glycerophosphate, 2 millimol/L EGTA, 1.0 millimol/L dithiothreitol, 0.01% (v/v) Nonidet-P40 (Sigma), 0.01% (w/v) bovine serum albumin] were added and the mixture was incubated for 15 min at 22° C. to allow pre-binding of the test compounds to the enzyme before the start of the kinase reaction. Then the kinase reaction was started by the addition of 3 microL of a solution ATP (3.33 millimol/L=> final conc. in the 5 microL assay volume is 2 millimol/L) and substrate (1.67 micromol/L=> final conc. in the 5 microL assay volume is 1 micromol/L) in assay buffer and the resulting mixture was incubated for a reaction time of 60 min at 22° C. The concentration of CDK12/CycK was adjusted depending of the activity of the enzyme lot and was chosen appropriate to have the assay in the linear range, typical concentrations were about 0.75 nanomol/L. The reaction was stopped by the addition of 3 microL of a solution of TR-FRET detection reagents (125 nanomol/L streptavidine-XL665 [Cisbio Bioassays, Codolet, France] and 0.67 nanomol/L anti-Phospho-c-Myc (Ser 62) (E1J4K)-antibody from Cell Signalling [#13748] and 2 nanomol/L LANCE EU-W1024 labeled anti-rabbit IgG antibody [Perkin-Elmer, product no. 0083]) in an aqueous EDTA-solution (133 millimol/L EDTA, 0.27% (w/v) bovine serum albumin in 66.7 millimol/L HEPES pH 7.5).
The resulting mixture was incubated 1 h at 22° C. to allow the formation of complex between the phosphorylated biotinylated peptide and the detection reagents. Subsequently the amount of phosphorylated substrate was evaluated by measurement of the resonance energy transfer from the Eu-chelate to the streptavidine-XL. Therefore, the fluorescence emissions at 620 nm and 665 nm after excitation at 350 nm was measured in a TR-FRET reader, e.g. a Pherastar FS (BMG Labtechnologies, Offenburg, Germany) or a Viewlux (Perkin-Elmer). The ratio of the emissions at 665 nm and at […] was taken as the measure for the amount of phosphorylated substrate. The data were normalised (enzyme reaction without inhibitor=0% inhibition, all other assay components but no enzyme=100% inhibition).

CDK12 = molecular target: T2, CDK12 (Homo sapiens, UniProt Q9NYV4); assay: CDK12 nuclear protein level: immunofluorescence/high content analysis in CAL-120 cells; format: cell-based; settings: for DC50: CAL-120 cells, 24 h, nuclear CDK12 staining, read-out: CDK12 degradation IF DC50-[mol/l] (median); for (IC50 CDK12 high ATP) to (Degradation DC50 CDK12) ratio: IC50 CDK12 hATP (Table 2) divided by DC50 CDK12 IF (Table 8)
T2 construct: endogenous in cells; host or cells: CAL-120 human breast cancer cells (DSMZ ACC 459)
T2 sequence (Q9NYV4 whole entry): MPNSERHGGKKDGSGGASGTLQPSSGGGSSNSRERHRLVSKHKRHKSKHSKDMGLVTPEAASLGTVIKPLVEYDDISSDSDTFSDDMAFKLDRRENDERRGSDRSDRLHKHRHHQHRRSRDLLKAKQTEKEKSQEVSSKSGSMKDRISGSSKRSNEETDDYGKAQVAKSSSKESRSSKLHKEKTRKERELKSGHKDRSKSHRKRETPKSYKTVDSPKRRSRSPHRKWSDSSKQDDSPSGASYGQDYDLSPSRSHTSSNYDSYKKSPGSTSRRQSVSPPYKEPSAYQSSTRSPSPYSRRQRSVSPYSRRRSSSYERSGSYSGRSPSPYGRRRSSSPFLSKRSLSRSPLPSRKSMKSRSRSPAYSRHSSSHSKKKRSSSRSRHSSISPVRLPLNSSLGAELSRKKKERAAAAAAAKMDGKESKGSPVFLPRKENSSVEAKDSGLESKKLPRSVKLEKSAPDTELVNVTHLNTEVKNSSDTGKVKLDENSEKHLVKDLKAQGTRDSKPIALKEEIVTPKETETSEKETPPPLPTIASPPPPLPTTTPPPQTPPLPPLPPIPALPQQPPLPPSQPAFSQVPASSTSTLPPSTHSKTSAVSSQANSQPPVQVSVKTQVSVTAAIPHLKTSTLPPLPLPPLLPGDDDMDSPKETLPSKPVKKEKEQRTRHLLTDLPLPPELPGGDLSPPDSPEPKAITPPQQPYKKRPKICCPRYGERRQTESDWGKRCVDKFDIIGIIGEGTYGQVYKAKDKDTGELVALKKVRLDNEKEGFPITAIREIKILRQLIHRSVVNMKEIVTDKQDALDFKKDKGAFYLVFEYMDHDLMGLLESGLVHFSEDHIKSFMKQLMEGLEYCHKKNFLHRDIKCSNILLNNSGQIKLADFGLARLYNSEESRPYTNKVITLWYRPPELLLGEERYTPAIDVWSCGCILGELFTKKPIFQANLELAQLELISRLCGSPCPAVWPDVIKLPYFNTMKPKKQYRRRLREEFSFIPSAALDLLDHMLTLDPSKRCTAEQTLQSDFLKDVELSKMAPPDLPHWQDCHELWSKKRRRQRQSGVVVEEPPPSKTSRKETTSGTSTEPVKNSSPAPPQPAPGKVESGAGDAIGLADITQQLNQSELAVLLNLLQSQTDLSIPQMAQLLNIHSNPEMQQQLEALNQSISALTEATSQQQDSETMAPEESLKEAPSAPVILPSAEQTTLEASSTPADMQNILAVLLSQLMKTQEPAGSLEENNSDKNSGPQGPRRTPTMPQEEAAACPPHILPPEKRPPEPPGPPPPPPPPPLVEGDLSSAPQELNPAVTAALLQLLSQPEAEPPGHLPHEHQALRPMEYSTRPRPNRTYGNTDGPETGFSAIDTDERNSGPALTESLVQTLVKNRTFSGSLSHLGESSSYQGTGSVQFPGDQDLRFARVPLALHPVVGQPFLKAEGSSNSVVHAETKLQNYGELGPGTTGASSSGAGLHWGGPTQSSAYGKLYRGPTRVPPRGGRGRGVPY
T2 sequence (O75909 whole entry partner): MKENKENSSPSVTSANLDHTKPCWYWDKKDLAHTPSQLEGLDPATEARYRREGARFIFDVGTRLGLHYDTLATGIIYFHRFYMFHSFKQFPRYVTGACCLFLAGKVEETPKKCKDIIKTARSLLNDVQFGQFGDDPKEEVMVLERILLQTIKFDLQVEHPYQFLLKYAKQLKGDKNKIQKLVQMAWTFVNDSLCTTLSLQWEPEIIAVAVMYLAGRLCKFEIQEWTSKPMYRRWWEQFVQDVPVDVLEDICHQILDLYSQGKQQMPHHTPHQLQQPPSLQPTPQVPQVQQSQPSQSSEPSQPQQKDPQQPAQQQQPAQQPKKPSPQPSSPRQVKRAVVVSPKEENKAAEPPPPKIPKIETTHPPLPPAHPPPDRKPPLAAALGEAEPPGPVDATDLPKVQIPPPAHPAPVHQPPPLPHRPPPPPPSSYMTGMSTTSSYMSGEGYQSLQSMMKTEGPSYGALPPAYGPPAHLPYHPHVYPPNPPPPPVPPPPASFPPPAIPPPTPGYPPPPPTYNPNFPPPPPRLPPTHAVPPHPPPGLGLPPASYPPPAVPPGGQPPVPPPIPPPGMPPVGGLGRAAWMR
Protocol: In the context of the present invention, the term “DC50 CDK12” refers to the DC50 values obtained according to the assay described in this section (6) herein below, i.e. the DC50 values for the degradation of CDK12.
(§1) CAL-120 human breast cancer cells (DSMZ ACC 459) are seeded in 1536-well microtiter plates (800 cells per well) containing 50 nanoL of compounds in Dose-Response. Control wells received DMSO or Reference Example 1. Plates are then incubated for 24 h at 37° C. in an humidified incubator and fixed with 4% PFA for 10 min. Then immunofluorescence (IF) against CDK12 (CellSignalling CDK12 Antibody #11973, rabbit, 1:100 dilution) is performed using standard IF protocols. Cells are then stained with Hoechst 33342 (Life Technologies, H-1399, 0.1 microg/ml) and imaged on an automated confocal microscopy system (e.g. Perkin Elmer Opera Phenix). Nuclear and cytoplasmic intensity as well as the nuclear/cytoplasmic intensity ratio is determined by automated image analysis using custom generated scripts (MetaXpress). Data is then transferred to Genedata Screener software, normalized to DMSO and control and DC50 values (degrading concentration to achieve 50% reduction of nuclear CDK12 staining intensity relative to controls) are reported.

CYCLIN K = CYCLIN K nuclear protein level: immunofluorescence/high content analysis in CAL-120 cells; format: cell-based, human; settings: 24 h, nuclear CCNK staining, read-out: CYCLIN K degradation IF, DC50-[mol/l] (median)
Protocol: In the context of the present invention, the term “DC50 Cyclin K” refers to the DC50 values obtained according to the assay described in this section (7) herein below, i.e. the DC50 values for the degradation of Cyclin K.
as §1, with “CYCLIN K (ThermoFisher Scientific CCNK” for “CDK12 (CellSignalling CDK12”, “#PA5-85020,” for “#11973,”, “1:200” for “1:100”, “CCNK” for “CDK12”

T1 sequence (Q9NYV4 with tags, fused parts or gaps): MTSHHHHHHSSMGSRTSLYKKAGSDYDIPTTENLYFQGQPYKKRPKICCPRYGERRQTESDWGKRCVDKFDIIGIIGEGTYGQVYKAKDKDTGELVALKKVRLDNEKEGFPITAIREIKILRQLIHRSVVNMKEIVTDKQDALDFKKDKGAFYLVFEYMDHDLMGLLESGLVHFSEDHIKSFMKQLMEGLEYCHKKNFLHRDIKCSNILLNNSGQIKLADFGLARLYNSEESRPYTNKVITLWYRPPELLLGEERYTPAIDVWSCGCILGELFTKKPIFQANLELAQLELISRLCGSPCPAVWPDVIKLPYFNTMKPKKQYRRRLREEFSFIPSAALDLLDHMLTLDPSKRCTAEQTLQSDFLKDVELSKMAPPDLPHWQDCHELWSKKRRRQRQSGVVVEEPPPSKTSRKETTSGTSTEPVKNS
T1 sequence (O75909 with tags, fused parts or gaps partner limits assumed): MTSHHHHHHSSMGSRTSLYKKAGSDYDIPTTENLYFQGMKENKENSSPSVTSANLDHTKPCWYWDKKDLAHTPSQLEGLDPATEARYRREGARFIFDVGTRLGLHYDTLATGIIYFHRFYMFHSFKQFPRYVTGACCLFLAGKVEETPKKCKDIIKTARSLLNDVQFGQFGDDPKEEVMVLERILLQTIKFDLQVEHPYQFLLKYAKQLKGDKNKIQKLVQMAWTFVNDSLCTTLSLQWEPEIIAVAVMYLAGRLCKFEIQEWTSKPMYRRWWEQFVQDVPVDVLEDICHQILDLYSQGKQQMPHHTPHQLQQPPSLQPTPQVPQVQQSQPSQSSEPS

Compound | IC50 (CDK12/CycK) | DC50 (CDK12) | (IC50 CDK12 high ATP) to (Degradation DC50 CDK12) ratio (CDK12) | DC50 (CYCLIN K)
Fc1ccc2[nH]c(CNc3nc(N4CCOCC4)nn4c(C(F)(F)F)cnc34)nc2c1F [Example 27, N-[(4,5-difluoro-1H-benzimidazol-2-yl)methyl]-2-(morpholin-4-yl)-7-(trifluoromethyl)imidazo[2,1-f][1,2,4]triazin-4-amine] | 10.7 nM | 1.1 nM | 10 | 3.45 nM
CN1CCN(c2nc(NCc3nc4c(F)c(F)ccc4[nH]3)c3ncc(C(F)(F)F)n3n2)CC1 [Example 28, N-[(4,5-difluoro-1H-benzimidazol-2-yl)methyl]-2-(4-methylpiperazin-1-yl)-7-(trifluoromethyl)imidazo[2,1-f][1,2,4]triazin-4-amine] | 1680 nM | 0.58 nM | 2887 | 0.363 nM
C[C@@H]1CN(c2nc(NCc3nc4c(F)c(F)ccc4[nH]3)c3ncc(C(F)(F)F)n3n2)C[C@H](C)N1 [Example 29, N-[(4,5-difluoro-1H-benzimidazol-2-yl)methyl]-2-[rel-(3R,5S)-3,5-dimethylpiperazin-1-yl]-7-(trifluoromethyl)imidazo[2,1-f][1,2,4]triazin-4-amine] | 40.5 nM | 0.229 nM | 177 | 0.267 nM

From patent publication US20230106032A1, “IMIDAZOTRIAZINES ACTING ON CANCER VIA INHIBITION OF CDK12” (Bayer Aktiengesellschaft, priority 2020, published 2023)
